Measurements published in paper PMC8320704 (Journal of medicinal chemistry, 2015).
Where “and” joins values, the source holds several entries; their conditions need not be identical. Identical values can stand only once. Like-named read-outs stand apart in the source and are kept apart here.

Legend:
HIV-1 IN (3′-P) [1] = molecular target: T1, HIV-1 IN (3′-P) (Human immunodeficiency virus type 1 group M subtype B, UniProt P04585); assay: HIV-1 IN gel-based assay, 3′-processing; type: biochemical
HIV-1 IN (ST) [2] = molecular target: T2, HIV-1 IN (ST) (Human immunodeficiency virus type 1 group M subtype B, UniProt P04585); assay: HIV-1 IN gel-based assay, strand transfer; type: biochemical
HIV-1 RT RNase H = HIV-1 RT RNase H (Human immunodeficiency virus type 1 group M subtype B, UniProt P04585); assay: HIV-1 RT RNase H inhibition; type: biochemical
HIV-1 IN (3′-P) [3] = molecular target: T1, HIV-1 IN (3′-P); details: read-out: 3′-P IC50, previously reported compounds; cited from earlier work
HIV-1 IN (ST) [4] = molecular target: T2, HIV-1 IN (ST); details: read-out: ST IC50, previously reported compound; cited from earlier work

CCOC(=O)/C(O)=C/C(=O)c1cn(Cc2ccc(OC)cc2)c2ccccc2c1=O [10h, 4-[1-(4-Methoxyphenyl)methyl-4(1H)-quinolinon-3-yl]-2-hydroxy-4-oxo-2-butenoic Acid Ethyl Ester]
IC50 (HIV-1 IN (3′-P) [1]): > 37 µM | IC50 (HIV-1 IN (ST) [2]): > 37 µM

O=C(O)/C(O)=C/C(=O)c1cn(CCCCc2ccccc2)c2ccccc2c1=O [11x, 2-Hydroxy-4-oxo-4-(4-oxo-1-(4-phenylbutyl)-1,4-dihydroquinolin-3-yl)but-2-enoic Acid]
IC50 (HIV-1 IN (3′-P) [1]): > 333 µM | IC50 (HIV-1 IN (ST) [2]): < 0.45 µM

O=C(O)/C(O)=C/C(=O)c1cn(Cc2ccc(F)cc2)c2cc(Cl)c(Cl)cc2c1=O [compound 8]
IC50 (HIV-1 RT RNase H; RNase H IC50, text): 42 µM | IC50 (HIV-1 IN (3′-P) [3]): > 50 µM | IC50 (HIV-1 IN (ST) [4]): 0.033 µM and 0.04 µM

CCOC(=O)/C(O)=C/C(=O)c1cn(Cc2ccc(Cl)cc2Cl)c2ccccc2c1=O [10o, 4-[1-(2,4-Dichlorophenyl)methyl-4(1H)-quinolinon-3-yl]-2-hydroxy-4-oxo-2-butenoic Acid Ethyl Ester]
IC50 (HIV-1 RT RNase H; RNase H IC50, Table 1): > 50 µM | IC50 (HIV-1 IN (ST) [2]): > 111 µM

CCOC(=O)/C(O)=C/C(=O)c1cn(Cc2ccc(C)cc2C)c2ccccc2c1=O [10q, 4-[1-(2,4-Dimethylphenyl)methyl-4(1H)-quinolinon-3-yl]-2-hydroxy-4-oxo-2-butenoic Acid Ethyl Ester]
IC50 (HIV-1 RT RNase H; RNase H IC50, Table 1): > 50 µM | IC50 (HIV-1 IN (ST) [2]): > 111 µM

CCOC(=O)/C(O)=C/C(=O)c1cn(Cc2ccc(Cl)cc2)c2ccccc2c1=O [10f, 4-[1-(4-Chlorophenyl)methyl-4(1H)-quinolinon-3-yl]-2-hydroxy-4-oxo-2-butenoic Acid Ethyl Ester]
IC50 (HIV-1 IN (3′-P) [1]): > 37 µM | IC50 (HIV-1 IN (ST) [2]): > 37 µM

CCOC(=O)/C(O)=C/C(=O)c1cn(Cc2ccc([N+](=O)[O-])cc2)c2ccccc2c1=O [10i, 4-[1-(4-Nitrophenyl)methyl-4(1H)-quinolinon-3-yl]-2-hydroxy-4-oxo-2-butenoic Acid Ethyl Ester]
IC50 (HIV-1 IN (3′-P) [1]): > 37 µM | IC50 (HIV-1 IN (ST) [2]): > 37 µM
